Assay type in all cases: biochemical
Assay [1] concerns the target T1, HDAC1/MTA1(aa: 162–546)/RBBP4 core NuRD complex (HMR) (Homo sapiens, UniProt Q09028+Q13330+Q13547).
T1 construct: made in house; host or cells: HEK293F
As to the kind of experiment: Boc-Lys HDAC inhibition assay. Particulars: 50 nM complex, 20 min preincubation rt, 100 μM Boc-(Ac)Lys-AMC, 37 °C 30 min, technical replicates N = 2. Here is the method: (§1) Inhibition assays with various peptide inhibitors were performed using a fluorescence-based assay. The inhibitor peptides were initially dissolved in 5% dimethyl sulfoxide (DMSO) at a stock concentration of 25 mM before being further diluted in the HDAC assay buffer (50 mM Tris/HCl, pH 7.5, 150 mM NaCl). Serial dilutions (1:3) of the inhibitor were prepared, starting at a concentration of 500 μM. HDAC complexes were diluted to a final concentration of 50 nM and incubated with the inhibitor for 20 min at rt. The Boc-(Ac)Lys-AMC substrate was added at a final concentration of 100 μM The final volume of the reaction was 50 μL. The reaction was incubated at 37 °C, 150 rpm, for 30 min, before a developer (50 mM Tris, pH 7.5, 100 mM NaCl, 10 mg/mL trypsin) was added. The reaction was incubated with the developer for 10 min before being measured (PerkinElmer, 2030 multilabel reader, VICTOR X5, excitation 335 nm, emission 460 nm). The absorbance of the buffer as the blank control was subtracted from the HDAC activity, and IC50 calculations were performed using the nonlinear regression log(inhibitor) vs response equation Y = bottom + (top – bottom)/(1+10^(X–Log IC50)) in Graphpad Prism 9.

For assay [2], the target named is T1, HDAC1/MTA1(aa: 162–546)/RBBP4 core NuRD complex (HMR). As to the kind of experiment: Caliper deacetylation assay (rate-of-turnover of substrate peptides). As to conditions: 125 nM HMR, 2 μM peptide; for Initial Rate of HMR against histone peptides: Rate (% conversion min-1): 50 mM Tris/HCl pH 7.5, 50 mM NaCl, 5% glycerol, linear fit of first 8 min, Caliper EZ Reader II, technical replicates N = 2. Here is the method:
The acetyl-lysine-containing library (compounds 1–8) was assessed for the initial rate at which they were deacetylated by the HMR complex (Figure 2A).
Reactions (30 μL) contained 125 nM HMR and 2 μM fluorescein-labeled peptides (peptides 1–8) in 50 mM Tris/HCl, pH 7.5, 50 mM NaCl, and 5% glycerol. The deacetylase reaction was recorded over a 30 min period, every 90 s, using a Caliper EZ Reader II System (Caliper Life Sciences, http://www.caliperls.com). The initial rates were calculated using the formula Y = Y-intercept + slope × X during the first 8 min of the reaction using GraphPad Prism 9.

The next assay concerns the target T2, CoREST complex (Homo sapiens, UniProt Q13547+Q9UKL0).
T2 construct: made in house; host or cells: HEK293F
The assay is described as follows: Boc-Lys HDAC inhibition assay. As to conditions: HDAC complexes tables; 50 nM complex, 100 μM Boc-(Ac)Lys-AMC, 37 °C 30 min; technical replicates N = 2.
Text: (§2) Finally, we directed our attention toward assessing how the results from the experiments with HMR would be common to the other known class I HDAC corepressor complexes. RERE, MIER1, CoREST, HMR, MiDAC, Sin3A, and SMRT were expressed and purified, and the concentrations were normalized based on the concentration of HDAC1 or HDAC3 (Figure 4A). We determined the potency of H3(23–29)K27Hd 12 and H4(12–18)K16Hd 16 against RERE, MIER1, CoREST, NuRD, MiDAC, Sin3A, and SMRT (Figure 4B). In addition, we repeated the H3(23–29)K27Hd alanine scan experiment for each of these complexes to assess whether or not the importance of Lys23 for maintaining potency against HMR was replicated across the other complexes (Figure 4C).
as §1

Another assay deals with T3, MIER1 complex (Homo sapiens, UniProt Q13547+Q8N108).
T3 construct: made in house; host or cells: HEK293F
T3 sequence (Q13547 whole entry): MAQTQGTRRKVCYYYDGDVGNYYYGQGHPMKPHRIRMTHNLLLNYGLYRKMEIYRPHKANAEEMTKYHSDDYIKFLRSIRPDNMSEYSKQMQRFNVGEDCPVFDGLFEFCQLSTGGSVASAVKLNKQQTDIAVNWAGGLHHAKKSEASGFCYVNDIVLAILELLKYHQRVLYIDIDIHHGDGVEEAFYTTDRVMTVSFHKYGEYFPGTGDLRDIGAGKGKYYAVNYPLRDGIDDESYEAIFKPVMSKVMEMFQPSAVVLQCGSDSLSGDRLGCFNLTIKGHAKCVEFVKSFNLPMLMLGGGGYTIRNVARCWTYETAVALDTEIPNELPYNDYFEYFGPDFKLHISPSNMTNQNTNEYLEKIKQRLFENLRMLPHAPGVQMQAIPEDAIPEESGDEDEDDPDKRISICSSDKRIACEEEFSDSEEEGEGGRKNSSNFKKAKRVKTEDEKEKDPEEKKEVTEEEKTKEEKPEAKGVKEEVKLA
T3 sequence (Q8N108 whole entry partner): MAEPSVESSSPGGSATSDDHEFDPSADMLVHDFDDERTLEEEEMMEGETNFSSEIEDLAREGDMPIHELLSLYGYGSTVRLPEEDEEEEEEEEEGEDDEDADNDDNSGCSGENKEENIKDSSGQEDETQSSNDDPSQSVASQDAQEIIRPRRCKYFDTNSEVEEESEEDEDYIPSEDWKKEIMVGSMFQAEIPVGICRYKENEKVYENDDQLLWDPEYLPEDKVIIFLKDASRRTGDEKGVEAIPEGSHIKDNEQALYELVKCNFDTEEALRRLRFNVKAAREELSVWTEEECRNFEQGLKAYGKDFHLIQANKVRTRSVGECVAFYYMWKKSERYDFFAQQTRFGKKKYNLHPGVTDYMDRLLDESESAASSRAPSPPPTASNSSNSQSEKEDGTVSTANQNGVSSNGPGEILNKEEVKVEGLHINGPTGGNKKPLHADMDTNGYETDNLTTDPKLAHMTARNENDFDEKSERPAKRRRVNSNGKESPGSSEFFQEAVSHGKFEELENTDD
As to the kind of experiment: Boc-Lys HDAC inhibition assay. Particulars: HDAC complexes tables; 50 nM complex, 100 μM Boc-(Ac)Lys-AMC, 37 °C 30 min; technical replicates N = 2.
Text: as §2, §1

For the next assay, the target named is T4, MiDAC complex (Homo sapiens, UniProt Q13547+Q6PJG2+Q9H147).
T4 construct: made in house; host or cells: HEK293F
T4 sequence (Q13547 whole entry): as the sequence (Q13547 whole entry) above
T4 sequence (Q6PJG2 628-887 partner limits assumed): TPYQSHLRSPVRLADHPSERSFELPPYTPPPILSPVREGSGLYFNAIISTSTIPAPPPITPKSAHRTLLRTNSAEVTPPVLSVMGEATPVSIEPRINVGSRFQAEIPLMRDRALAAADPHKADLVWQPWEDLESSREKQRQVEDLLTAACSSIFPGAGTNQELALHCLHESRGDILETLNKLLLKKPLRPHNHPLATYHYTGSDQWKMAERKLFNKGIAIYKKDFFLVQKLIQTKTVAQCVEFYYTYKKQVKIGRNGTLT
T4 sequence (Q9H147 whole entry partner): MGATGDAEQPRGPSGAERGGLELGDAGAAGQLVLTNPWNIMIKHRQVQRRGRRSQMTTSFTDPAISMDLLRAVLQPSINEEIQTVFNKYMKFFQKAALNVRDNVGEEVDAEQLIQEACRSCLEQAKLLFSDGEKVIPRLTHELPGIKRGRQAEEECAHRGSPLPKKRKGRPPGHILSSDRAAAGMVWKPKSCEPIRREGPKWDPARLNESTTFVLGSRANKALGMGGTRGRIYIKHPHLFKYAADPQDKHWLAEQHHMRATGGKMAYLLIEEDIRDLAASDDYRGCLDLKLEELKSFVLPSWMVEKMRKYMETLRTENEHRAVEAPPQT
The assay is described as follows: Boc-Lys HDAC inhibition assay. As to conditions: HDAC complexes tables; 50 nM complex, 100 μM Boc-(Ac)Lys-AMC, 37 °C 30 min; technical replicates N = 2.
Text: as §2, §1

The next assay concerns the target T5, RERE complex (Homo sapiens, UniProt Q13547+Q9P2R6).
T5 construct: made in house; host or cells: HEK293F
The assay is described as follows: Boc-Lys HDAC inhibition assay. Particulars: HDAC complexes tables; 50 nM complex, 100 μM Boc-(Ac)Lys-AMC, 37 °C 30 min; technical replicates N = 2.
Text: as §2, §1

The target in another assay is T6, SMRT complex (HDAC3) (Homo sapiens, UniProt O15379).
T6 construct: made in house; host or cells: HEK293F
T6 sequence (O15379 whole entry, species assumed, one chain of several): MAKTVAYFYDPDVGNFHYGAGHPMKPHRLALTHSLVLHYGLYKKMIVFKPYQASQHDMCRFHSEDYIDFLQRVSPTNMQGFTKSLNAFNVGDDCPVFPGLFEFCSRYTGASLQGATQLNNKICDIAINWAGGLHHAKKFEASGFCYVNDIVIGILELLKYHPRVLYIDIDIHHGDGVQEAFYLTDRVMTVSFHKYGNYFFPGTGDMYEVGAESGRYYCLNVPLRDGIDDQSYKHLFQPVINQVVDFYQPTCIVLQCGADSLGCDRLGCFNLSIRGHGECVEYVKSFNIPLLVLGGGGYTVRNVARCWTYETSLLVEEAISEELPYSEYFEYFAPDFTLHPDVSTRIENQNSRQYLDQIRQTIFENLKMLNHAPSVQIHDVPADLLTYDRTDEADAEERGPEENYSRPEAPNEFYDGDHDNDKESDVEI
The assay is described as follows: Boc-Lys HDAC inhibition assay. Particulars: HDAC complexes tables; 50 nM complex, 100 μM Boc-(Ac)Lys-AMC, 37 °C 30 min; technical replicates N = 2.
Text: as §2, §1

Setting [3] is: inhibitor library experiment, fluorescence, read-out: IC50 of HMR against histone peptide library.
Where [4] appears, read: alanine scan / H4K12Hd experiments, read-out: IC50 of HMR against H3 K27Hd, H4 K16Hd and H4K12Hd peptides.

Like-named read-outs stand apart in the source and are kept apart here. Residues, ends and D or L forms follow the SMILES beside them. No end group written: not given here.

T1 sequence (Q13547 whole entry, species assumed): as the sequence (Q13547 whole entry) above
T1 sequence (Q13330 162-546 partner limits assumed, species assumed): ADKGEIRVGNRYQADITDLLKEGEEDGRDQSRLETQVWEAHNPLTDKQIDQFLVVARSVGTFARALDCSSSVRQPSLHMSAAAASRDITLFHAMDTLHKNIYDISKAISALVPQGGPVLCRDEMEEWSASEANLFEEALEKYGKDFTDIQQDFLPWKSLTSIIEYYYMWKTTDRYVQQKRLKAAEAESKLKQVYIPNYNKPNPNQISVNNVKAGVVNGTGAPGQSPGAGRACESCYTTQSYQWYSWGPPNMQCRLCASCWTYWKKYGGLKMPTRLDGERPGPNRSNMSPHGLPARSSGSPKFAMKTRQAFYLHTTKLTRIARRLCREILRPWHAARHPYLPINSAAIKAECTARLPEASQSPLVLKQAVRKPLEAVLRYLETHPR
T1 sequence (Q09028 whole entry partner, species assumed): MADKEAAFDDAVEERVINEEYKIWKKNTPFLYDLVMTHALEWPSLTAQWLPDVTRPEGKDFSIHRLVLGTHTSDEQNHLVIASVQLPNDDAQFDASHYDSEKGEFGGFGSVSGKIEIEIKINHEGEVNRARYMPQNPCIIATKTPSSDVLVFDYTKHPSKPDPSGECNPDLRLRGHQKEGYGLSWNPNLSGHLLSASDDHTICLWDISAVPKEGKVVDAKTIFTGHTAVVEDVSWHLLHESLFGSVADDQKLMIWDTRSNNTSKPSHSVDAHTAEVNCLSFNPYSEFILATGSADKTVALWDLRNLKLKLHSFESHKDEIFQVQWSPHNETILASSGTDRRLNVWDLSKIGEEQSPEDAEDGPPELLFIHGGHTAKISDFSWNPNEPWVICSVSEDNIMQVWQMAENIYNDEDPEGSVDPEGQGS
T2 sequence (Q13547 whole entry, other chains not shown): as the sequence (Q13547 whole entry) above
T2 sequence (Q9UKL0 86-485 partner limits assumed, other chains not shown): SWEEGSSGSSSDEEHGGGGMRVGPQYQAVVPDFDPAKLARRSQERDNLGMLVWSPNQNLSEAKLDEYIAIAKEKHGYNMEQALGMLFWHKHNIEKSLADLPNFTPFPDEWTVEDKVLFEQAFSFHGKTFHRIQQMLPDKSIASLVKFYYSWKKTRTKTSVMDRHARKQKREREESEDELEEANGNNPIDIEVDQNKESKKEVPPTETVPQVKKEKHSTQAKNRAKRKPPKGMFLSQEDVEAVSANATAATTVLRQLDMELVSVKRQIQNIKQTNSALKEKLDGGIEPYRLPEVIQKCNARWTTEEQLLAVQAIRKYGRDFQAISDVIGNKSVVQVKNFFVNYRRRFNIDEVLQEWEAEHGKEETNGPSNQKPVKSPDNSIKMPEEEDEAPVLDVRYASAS
T5 sequence (Q13547 whole entry): as the sequence (Q13547 whole entry) above
T5 sequence (Q9P2R6 whole entry partner): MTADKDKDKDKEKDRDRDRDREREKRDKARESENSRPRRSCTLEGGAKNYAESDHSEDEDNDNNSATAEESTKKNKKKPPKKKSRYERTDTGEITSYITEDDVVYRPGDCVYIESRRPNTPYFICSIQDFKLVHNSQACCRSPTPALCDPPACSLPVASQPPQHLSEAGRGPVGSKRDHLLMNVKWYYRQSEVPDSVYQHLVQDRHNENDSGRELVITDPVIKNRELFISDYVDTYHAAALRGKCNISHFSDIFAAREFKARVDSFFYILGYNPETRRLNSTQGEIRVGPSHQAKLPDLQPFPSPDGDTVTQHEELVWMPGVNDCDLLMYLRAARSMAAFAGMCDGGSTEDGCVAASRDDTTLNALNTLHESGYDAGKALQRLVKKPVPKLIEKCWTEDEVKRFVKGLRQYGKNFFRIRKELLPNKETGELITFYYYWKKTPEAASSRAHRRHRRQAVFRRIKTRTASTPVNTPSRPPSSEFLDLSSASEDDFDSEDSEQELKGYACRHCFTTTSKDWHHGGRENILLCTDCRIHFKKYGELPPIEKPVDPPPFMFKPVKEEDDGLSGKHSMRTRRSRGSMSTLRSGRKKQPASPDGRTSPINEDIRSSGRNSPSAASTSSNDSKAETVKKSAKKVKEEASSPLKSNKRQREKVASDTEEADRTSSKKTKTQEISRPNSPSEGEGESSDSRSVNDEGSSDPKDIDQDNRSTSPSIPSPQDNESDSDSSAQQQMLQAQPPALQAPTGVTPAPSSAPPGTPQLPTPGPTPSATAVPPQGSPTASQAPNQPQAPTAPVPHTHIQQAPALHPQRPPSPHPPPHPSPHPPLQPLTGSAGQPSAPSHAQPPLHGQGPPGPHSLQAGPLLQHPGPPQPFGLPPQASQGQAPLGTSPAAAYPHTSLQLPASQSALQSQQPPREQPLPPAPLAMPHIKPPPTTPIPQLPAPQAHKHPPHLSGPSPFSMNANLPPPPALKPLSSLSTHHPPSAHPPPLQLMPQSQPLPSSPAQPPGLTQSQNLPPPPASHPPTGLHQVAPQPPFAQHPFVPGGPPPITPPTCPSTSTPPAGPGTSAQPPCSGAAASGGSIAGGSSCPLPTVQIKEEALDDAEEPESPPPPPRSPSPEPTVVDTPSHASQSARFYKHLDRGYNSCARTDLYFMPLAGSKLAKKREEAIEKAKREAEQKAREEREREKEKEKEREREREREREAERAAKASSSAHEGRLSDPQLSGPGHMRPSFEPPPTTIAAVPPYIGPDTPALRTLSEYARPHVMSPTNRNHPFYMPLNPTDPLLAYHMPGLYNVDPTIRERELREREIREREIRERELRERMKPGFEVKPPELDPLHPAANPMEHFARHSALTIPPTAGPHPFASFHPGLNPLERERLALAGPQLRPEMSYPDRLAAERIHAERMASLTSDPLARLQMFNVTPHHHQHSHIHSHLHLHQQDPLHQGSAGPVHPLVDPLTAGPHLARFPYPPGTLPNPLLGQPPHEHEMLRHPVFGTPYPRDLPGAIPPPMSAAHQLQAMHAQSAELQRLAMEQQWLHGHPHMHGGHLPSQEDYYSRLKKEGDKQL

The IC50 is the concentration needed to halve the response being measured. On to `CC(=O)N[C@@H](CO)C(=O)NCC(=O)N[C@@H](CCCNC(=N)N)C(=O)NCC(=O)N[C@@H](CCCCCC(=O)NO)C(=O)NCC(=O)NCC(=O)N[C@@H](CCCCN)C(N)=O` [compound 13, H4 (1-8) K5Hd] (HELM PEPTIDE1{[ac].S.G.R.G.[O=C([C@H](CCCCCC(=O)[*:3])N[*:1])[*:2]].G.G.K.[am]}|CHEM1{[ON[*:1]]}$PEPTIDE1,CHEM1,6:R3-1:R1$$$V2.0), for which, in assay [1] (setting [3]), the concentration for half-maximal inhibition (IC50) was found to be 633 nM. Regarding `CC(=O)N[C@@H](CCCCN)C(=O)NCC(=O)NCC(=O)N[C@@H](C)C(=O)N[C@@H](CCCCCC(=O)NO)C(=O)N[C@@H](C)C(=O)N[C@@H](Cc1c[nH]cn1)C(N)=O` [compound 25, H4 (12-18) K16Hd R17A] (HELM PEPTIDE1{[ac].K.G.G.A.[O=C([C@H](CCCCCC(=O)[*:3])N[*:1])[*:2]].A.H.[am]}|CHEM1{[ON[*:1]]}$PEPTIDE1,CHEM1,6:R3-1:R1$$$V2.0), the IC50 in assay [1] (setting [4]) was 429 nM. With “H3(6–12)K9Ac (TARK(Ac)STG-NH2; UniProt P68431 7-13, looked up, fragment) [compound 2, acetyl-lysine-containing histone H3 tail substrate peptide, C-terminal amide]”, the “Initial Rate of HMR against histone peptides: Rate (% conversion min-1)” value (from here on “Initial Rate of HMR … (% conversion min-1)”) in assay [2] is reported as 0.40 +/- 0.013 % conversion min-1. Take “H4(9–15)K12Ac (GLGK(Ac)GGA-NH2; UniProt P62805 10-16, looked up, fragment) [compound 7, acetyl-lysine-containing histone H4 tail substrate peptide, C-terminal amide]”: in assay [2], the “Initial Rate of HMR … (% conversion min-1)” value is 0.03 +/-0.020 % conversion min-1. Besides, in assay [2] (30 min time course, table of initial rates), the Km result is given as “Unstable”. As for `CC(=O)N[C@@H](CCCCN)C(=O)NCC(=O)NCC(=O)N[C@@H](C)C(=O)N[C@@H](CCCCCC(=O)NO)C(=O)N[C@@H](CCCNC(=N)N)C(=O)N[C@@H](C)C(N)=O` [compound 26, H4 (12-18) K16Hd H18A] (HELM PEPTIDE1{[ac].K.G.G.A.[O=C([C@H](CCCCCC(=O)[*:3])N[*:1])[*:2]].R.A.[am]}|CHEM1{[ON[*:1]]}$PEPTIDE1,CHEM1,6:R3-1:R1$$$V2.0), in assay [1] (setting [4]), the half-maximal inhibitory concentration (IC50) is 1150 nM.

For “H3(23–29)K27Ac (KAARK(Ac)SA-NH2; UniProt P68431 24-30, looked up, fragment) [compound 4, acetyl-lysine-containing histone H3 tail substrate peptide, C-terminal amide]”, in assay [2], the “Initial Rate of HMR … (% conversion min-1)” value is recorded as 0.79 +/-0.075 % conversion min-1. On to `CC(=O)N[C@H](C(=O)NCC(=O)NCC(=O)N[C@@H](CCCCCC(=O)NO)C(=O)N[C@@H](C)C(=O)N1CCC[C@H]1C(=O)N[C@@H](CCCNC(=N)N)C(N)=O)[C@@H](C)O` [compound 11, H3 (11-17) K14Hd] (HELM PEPTIDE1{[ac].T.G.G.[O=C([C@H](CCCCCC(=O)[*:3])N[*:1])[*:2]].A.P.R.[am]}|CHEM1{[ON[*:1]]}$PEPTIDE1,CHEM1,5:R3-1:R1$$$V2.0), for which the half-inhibitory concentration (IC50) in assay [1] (setting [3]) was determined as 886 nM. With `CC(=O)N[C@@H](CCCCN)C(=O)N[C@@H](C)C(=O)N[C@@H](C)C(=O)N[C@@H](C)C(=O)N[C@@H](CCCCCC(=O)NO)C(=O)N[C@@H](CO)C(=O)N[C@@H](C)C(N)=O` [compound 22, H3(23–29)R26A K27Hd] (HELM PEPTIDE1{[ac].K.A.A.A.[O=C([C@H](CCCCCC(=O)[*:3])N[*:1])[*:2]].S.A.[am]}|CHEM1{[ON[*:1]]}$PEPTIDE1,CHEM1,6:R3-1:R1$$$V2.0), the concentration for half-maximal inhibition (IC50) in assay [1] (setting [4]) amounted to 172 nM; against CoREST complex, 287 nM; on MIER1 complex, 334 nM; against MiDAC complex, 203 nM; against RERE complex, 464 nM; at SMRT complex (HDAC3) it was 110 nM. For the molecule H4(1–8)K5Ac [compound 5], in assay [2], the “Initial Rate of HMR … (% conversion min-1)” value is on record as 0.32 +/-0.065 % conversion min-1. As to `CC(=O)NCC(=O)N[C@@H](CCCCN)C(=O)NCC(=O)NCC(=O)N[C@@H](CCCCCC(=O)NO)C(=O)NCC(=O)N[C@@H](CC(C)C)C(N)=O` [compound 14, H4 (4-10) K8Hd] (HELM PEPTIDE1{[ac].G.K.G.G.[O=C([C@H](CCCCCC(=O)[*:3])N[*:1])[*:2]].G.L.[am]}|CHEM1{[ON[*:1]]}$PEPTIDE1,CHEM1,6:R3-1:R1$$$V2.0), in assay [1] (setting [3]), the concentration for half-maximal inhibition (IC50) amounted to 431 nM. Take `CC(=O)N[C@@H](C)C(=O)NCC(=O)NCC(=O)N[C@@H](C)C(=O)N[C@@H](CCCCCC(=O)NO)C(=O)N[C@@H](CCCNC(=N)N)C(=O)N[C@@H](Cc1c[nH]cn1)C(N)=O` [compound 24, H4 (12-18) K16Hd K12A] (HELM PEPTIDE1{[ac].A.G.G.A.[O=C([C@H](CCCCCC(=O)[*:3])N[*:1])[*:2]].R.H.[am]}|CHEM1{[ON[*:1]]}$PEPTIDE1,CHEM1,6:R3-1:R1$$$V2.0): the half-inhibitory concentration (IC50) in assay [1] (setting [4]) stood at 3250 nM.

For the molecule “H3(1–7)K4Ac (ARTK(Ac)QTA-NH2; UniProt P68431 2-8, looked up, fragment) [compound 1, acetyl-lysine-containing histone H3 tail substrate peptide, C-terminal amide]”, the “Initial Rate of HMR … (% conversion min-1)” value in assay [2] is 0.18 +/- 0.009 % conversion min-1.

Take `CC(=O)N[C@@H](C)C(=O)N[C@@H](CCCNC(=N)N)C(=O)N[C@H](C(=O)N[C@@H](CCCCCC(=O)NO)C(=O)N[C@@H](CCC(N)=O)C(=O)N[C@H](C(=O)N[C@@H](C)C(N)=O)[C@@H](C)O)[C@@H](C)O` [compound 9, H3 (1-7) K4Hd] (HELM PEPTIDE1{[ac].A.R.T.[O=C([C@H](CCCCCC(=O)[*:3])N[*:1])[*:2]].Q.T.A.[am]}|CHEM1{[ON[*:1]]}$PEPTIDE1,CHEM1,5:R3-1:R1$$$V2.0): the IC50 in assay [1] (setting [3]) turned out to be 333 nM. Consider “H4(12–18)K16Ac (KGGAK(Ac)RH-NH2; UniProt P62805 13-19, looked up, fragment) [compound 8, acetyl-lysine-containing histone H4 tail substrate peptide, C-terminal amide]”, for which the “Initial Rate of HMR … (% conversion min-1)” value in assay [2] is 1.08 +/-0.024 % conversion min-1. On to “H4(4–10)K8Ac (GKGGK(Ac)GL-NH2; UniProt P62805 5-11, looked up, fragment) [compound 6, acetyl-lysine-containing histone H4 tail substrate peptide, C-terminal amide]”, for which the “Initial Rate of HMR … (% conversion min-1)” value in assay [2] is reported as 0.16 +/-0.016 % conversion min-1. The same measure, in the same setting: the value for “H3(11–17)K14Ac (TGGK(Ac)APR-NH2; UniProt P68431 12-18, looked up, fragment) [compound 3, acetyl-lysine-containing histone H3 tail substrate peptide, C-terminal amide]” was 0.10 +/- 0.027 % conversion min-1.

For the origin of these results see paper PMC9488896, “Hydroxamic Acid-Modified Peptide Library Provides Insights into the Molecular Basis for the Substrate Selectivity of HDAC Corepressor Complexes” (ACS Chemical Biology, 2022).
